# Biological target: T1, Human BCL-XL protein (N-terminal HiBiT tagged BCL-XL in HT1080 cells) (Homo sapiens, UniProt Q07817)
# T1 construct: expressed in transfected cells; host or cells: HT-1080 (ATCC CCL-121), stably transduced with lentivirus pLV-UBC-N-HiBiT-BCL-XL-PGK-puro and selected with puromycin
# Test: HiBiT based degradation assay
# Assay type: cell-based
# Conditions: HT1080 cells expressing HiBiT-BCL-XL, 24 h; for Ymin (24 h): BCL-XL degradation normalized with DMSO control; for DC50: BCL-XL degradation, read-out: EC50 (24 h)
# How it was run: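 This HiBiT degradation assay measured loss of BCL-XL in HT1080 cells that stably express an N-terminal HiBiT-BCL-XL fusion delivered by lentivirus. Cells were added to compound-spotted 384-well plates, and luminescence was read on a PHERAstar FSX reader. Signal was expressed relative to DMSO controls, curves were fitted by four-parameter logistic regression, and for hook-shaped curves the Ymin point served as the bottom plateau when calculating EC50.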
# T1 sequence (Q07817 whole entry): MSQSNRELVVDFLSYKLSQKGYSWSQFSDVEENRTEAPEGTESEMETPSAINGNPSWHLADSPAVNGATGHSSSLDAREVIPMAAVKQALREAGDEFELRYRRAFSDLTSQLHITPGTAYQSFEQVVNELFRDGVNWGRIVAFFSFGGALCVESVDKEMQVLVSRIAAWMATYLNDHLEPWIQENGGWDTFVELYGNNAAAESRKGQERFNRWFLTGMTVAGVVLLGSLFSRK
compound,measurement,value
"Cc1c(OCCCC2CCN(CC3CN(c4ccc5c(C6CCC(=O)NC6=O)nn(C)c5c4)C3)CC2)cccc1-c1ccc(N2CCc3cccc(C(=O)Nc4nc5ccccc5s4)c3C2)nc1C(=O)O (stereo not drawn) [Compound 312, 6-(8-(benzo[d]thiazol-2-ylcarbamoyl)-3,4-dihydroisoquinolin-2(1H)-yl)-3-(3-(3-(1-((1-(3-(2,6-dioxopiperidin-3-yl)-1-methyl-1H-indazol-6-yl)azetidin-3-yl)methyl)piperidin-4-yl)propoxy)-2-methylphenyl)picolinic acid]",Ymin (24 h),A (Ymin < 50%)
same,DC50,< 100 nM
"Cn1nc(C2CCC(=O)NC2=O)c2ccc(NC(=O)CN3CCC(CCCOc4cccc(-c5ccc(N6CCc7cccc(C(=O)Nc8nc9ccccc9s8)c7C6)nc5C(=O)O)c4C(F)(F)F)CC3)cc21 (stereo not drawn) [Compound 313, 6-[8-(1,3-benzothiazol-2-ylcarbamoyl)-3,4-dihydro-1H-isoquinolin-2-yl]-3-[3-[3-[1-[2-[[3-(2,6-dioxo-3-piperidyl)-1-methyl-indazol-6-yl]amino]-2-oxo-ethyl]-4-piperidyl]propoxy]-2-(trifluoromethyl)phenyl]pyridine-2-carboxylic acid]",Ymin (24 h),A (Ymin < 50%)
same,DC50,< 100 nM
"Cn1nc(C2CCC(=O)NC2=O)c2ccc(NC(=O)CN3CCC(CCCOc4cccc(-c5ccc(N6CCc7cccc(C(=O)Nc8nc9ccccc9s8)c7C6)nc5C(=O)O)c4)CC3)cc21 (stereo not drawn) [Compound 314, 6-(8-(benzo[d]thiazol-2-ylcarbamoyl)-3,4-dihydroisoquinolin-2(1H)-yl)-3-(3-(3-(1-(2-((3-(2,6-dioxopiperidin-3-yl)-1-methyl-1H-indazol-6-yl)amino)-2-oxoethyl)piperidin-4-yl)propoxy)phenyl)picolinic acid]",Ymin (24 h),B (50% ≤ Ymin < 70%)
same,DC50,< 100 nM
"Cc1c(O[C@H]2CC[C@H](CCCN3CCN(c4ccc5c(N6CCC(=O)NC6=O)nn(C)c5c4)CC3)CC2)cccc1-c1ccc(N2CCc3cccc(C(=O)Nc4nc5ccccc5s4)c3C2)nc1C(=O)O [Compound 316a, 6-(8-(benzo[d]thiazol-2-ylcarbamoyl)-3,4-dihydroisoquinolin-2(1H)-yl)-3-(3-(((1s,4r)-4-(3-(4-(3-(2,4-dioxotetrahydropyrimidin-1(2H)-yl)-1-methyl-1H-indazol-6-yl)piperazin-1-yl)propyl)cyclohexyl)oxy)-2-methylphenyl)picolinic acid]",Ymin (24 h),A (Ymin < 50%)
same,DC50,< 100 nM
"Cc1c(OCCCC2CCN(CC(=O)Nc3ccc4c(N5CCC(=O)NC5=O)nn(C)c4c3)CC2)cccc1-c1ccc(N2CCc3cccc(C(=O)Nc4nc5ccccc5s4)c3C2)nc1C(=O)O [Compound 317, 6-(8-(benzo[d]thiazol-2-ylcarbamoyl)-3,4-dihydroisoquinolin-2(1H)-yl)-3-(3-(3-(1-(2-((3-(2,4-dioxotetrahydropyrimidin-1(2H)-yl)-1-methyl-1H-indazol-6-yl)amino)-2-oxoethyl)piperidin-4-yl)propoxy)-2-methylphenyl)picolinic acid]",Ymin (24 h),B (50% ≤ Ymin < 70%)
same,DC50,< 100 nM
"Cc1c(O[C@H]2CC[C@H](CCCN3CCN(c4ccc5c(C6CCC(=O)NC6=O)nn(C)c5c4)C(C)(C)C3)CC2)cccc1-c1ccc(N2CCc3cccc(C(=O)Nc4nc5ccccc5s4)c3C2)nc1C(=O)O (stereo partly drawn) [Compound 318a, 6-(8-(benzo[d]thiazol-2-ylcarbamoyl)-3,4-dihydroisoquinolin-2(1H)-yl)-3-(3-(((1s,4r)-4-(3-(4-(3-(2,6-dioxopiperidin-3-yl)-1-methyl-1H-indazol-6-yl)-3,3-dimethylpiperazin-1-yl)propyl)cyclohexyl)oxy)-2-methylphenyl)picolinic acid]",Ymin (24 h),A (Ymin < 50%)
same,DC50,< 100 nM
